Eleven compounds from ChEMBL document CHEMBL4177726, “Synthesis and anti-influenza virus evaluation of triterpene-sialic acid conjugates” (Bioorg Med Chem, 2018) can be followed below.

In series [1] the target is Neuraminidase (Influenza A virus (A/Memphis/1/1971(H3N2))) (UniProt P03471). As to the kind of experiment: Inhibition of Influenza A virus A/Memphis/1/71(H3N2) sialidase at 3.33 x 10^-4M preincubated for 15 mins followed by MUNA substrate addition measured after 15 mins by fluorescence assay relative to control.
Neuraminidase (Influenza A virus (A/Memphis/1/1971(H3N2))), sequence (P03471 whole entry): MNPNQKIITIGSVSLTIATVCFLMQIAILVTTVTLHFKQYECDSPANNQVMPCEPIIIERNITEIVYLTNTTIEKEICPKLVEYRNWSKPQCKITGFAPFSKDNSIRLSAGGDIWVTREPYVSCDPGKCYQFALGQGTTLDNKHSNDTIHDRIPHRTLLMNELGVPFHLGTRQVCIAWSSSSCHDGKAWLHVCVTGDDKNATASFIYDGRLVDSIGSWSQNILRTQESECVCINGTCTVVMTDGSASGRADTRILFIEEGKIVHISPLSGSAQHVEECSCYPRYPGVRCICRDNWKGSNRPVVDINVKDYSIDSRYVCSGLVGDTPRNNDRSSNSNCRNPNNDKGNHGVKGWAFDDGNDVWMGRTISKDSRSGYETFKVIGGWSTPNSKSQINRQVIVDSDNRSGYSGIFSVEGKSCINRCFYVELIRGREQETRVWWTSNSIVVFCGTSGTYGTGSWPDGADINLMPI
A short description of series [2]: Inhibition of Influenza A virus A/Duck/313/4/78(H5N3) sialidase at 3.33 x 10^-4M preincubated for 15 mins followed by MUNA substrate addition measured after 15 mins by fluorescence assay relative to control.
The target of series [3] is Neuraminidase (Influenza A virus (A/Puerto Rico/8/1934(H1N1))) (UniProt P03468). As to the kind of experiment: Inhibition of Influenza A virus A/PR/8/34(H1N1) sialidase at 3.33 x 10^-4M preincubated for 15 mins followed by MUNA substrate addition measured after 15 mins by fluorescence assay relative to control.
Neuraminidase (Influenza A virus (A/Puerto Rico/8/1934(H1N1))), sequence (P03468 whole entry): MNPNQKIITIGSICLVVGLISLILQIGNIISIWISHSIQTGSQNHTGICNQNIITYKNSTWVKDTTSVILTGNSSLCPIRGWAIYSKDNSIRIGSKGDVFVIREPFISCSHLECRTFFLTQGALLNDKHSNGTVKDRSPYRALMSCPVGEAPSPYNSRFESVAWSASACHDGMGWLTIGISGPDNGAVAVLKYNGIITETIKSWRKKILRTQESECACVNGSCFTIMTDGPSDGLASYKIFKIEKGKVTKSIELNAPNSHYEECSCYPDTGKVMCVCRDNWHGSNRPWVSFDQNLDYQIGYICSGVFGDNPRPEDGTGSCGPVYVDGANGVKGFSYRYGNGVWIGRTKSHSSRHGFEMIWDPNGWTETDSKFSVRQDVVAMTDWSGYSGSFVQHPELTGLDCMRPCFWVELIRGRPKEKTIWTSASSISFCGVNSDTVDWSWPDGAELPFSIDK
In series [4] the test system is Influenza A virus. Kind of series: Antiviral activity against Influenza A virus A/PR/8/34(H1N1) infected in MDCK cells assessed as viral yield at 1 x 10^-5 M preincubated with virus for 1 hr followed by viral infection measured after 18 hrs by beta-galactosidase based fluorescence assay (reference value: 100%). The format is functional, A/Puerto Rico/8/1934(H1N1).

Series [5] concerns MDCK. As to the kind of experiment: Cytotoxicity against MDCK cells assessed as reduction in cell viability at 1 x 10^-5 M after 24 hrs by CCK8 assay. The format is cell-based, Canis lupus familiaris. The settings on record: dog, 10 µM.
Series [6] concerns Influenza A virus. Kind of series: Antiviral activity against Influenza A virus A/PR/8/34(H1N1) infected in MDCK cells assessed as reduction in viral yield at 1 x 10^-5 M preincubated with virus for 1 hr followed by viral infection measured after 18 hrs by beta-galactosidase based fluorescence assay. The format is functional, organism-based. As to conditions: A/Puerto Rico/8/1934(H1N1).

Regarding `COC(=O)[C@@]1(C)CC[C@]2(C)CC[C@]3(C)C(=CC(=O)[C@@H]4[C@@]5(C)CC[C@H](O[C@@]6(C(=O)O)C[C@H](O)[C@@H](NC(C)=O)[C@H]([C@H](O)[C@H](O)CO)O6)C(C)(C)[C@@H]5CC[C@]43C)[C@@H]2C1`, the inhibition in series [1] was 44.8%; in series [2], 46.2%; in series [3], 35.4%.
Consider `CC(=O)N[C@H]1[C@H]([C@H](O)[C@H](O)CO)O[C@@](O[C@H]2CC[C@]3(C)[C@H]4CC=C5[C@@H]6C[C@@](C)(CO)CC[C@]6(C)CC[C@@]5(C)[C@]4(C)CC[C@H]3C2(C)C)(C(=O)O)C[C@@H]1O`, for which the inhibition in series [1] was found to be 45%; in series [2], 57.6%; in series [3], 71%. For the same compound, the Activity in series [4] is on record as 88%; in series [5], “Non-Toxic”.
For the compound `CC(=O)N[C@H]1[C@H]([C@H](O)[C@H](O)CO)O[C@@](O[C@H]2CC[C@]3(C)[C@H]4C(=O)C=C5[C@@H]6C[C@@](C)(CO)CC[C@]6(C)CC[C@@]5(C)[C@]4(C)CC[C@H]3C2(C)C)(C(=O)O)C[C@@H]1O`, the inhibition worked out at 30.3% in series [1], 25.3% in series [2] and 50.3% in series [3].
For `CC(=O)N[C@H]1[C@H]([C@H](O)[C@H](O)CO)O[C@](O[C@H]2CC[C@]3(C)[C@H]4C(=O)C=C5[C@@H]6C[C@@](C)(C(=O)O)CC[C@]6(C)CC[C@@]5(C)[C@]4(C)CC[C@H]3C2(C)C)(C(=O)O)C[C@@H]1O`, the inhibition in series [1] is 23.4%; in series [2], 25.8%; in series [3], 21.1%.
With `CC(=O)N[C@H]1[C@H]([C@H](O)[C@H](O)CO)O[C@](O[C@H]2CC[C@]3(C)[C@H]4CC=C5[C@@H]6C[C@@](C)(CO)CC[C@]6(C)CC[C@@]5(C)[C@]4(C)CC[C@H]3C2(C)C)(C(=O)O)C[C@@H]1O`, the results for the inhibition in series [1], in series [2] and in series [3] were 68.7%, 55.7% and 76.7%, respectively. Also, the Activity in series [4] was 72.6%; in series [5] it was “Non-Toxic”; in series [6], “Dose-dependent effect”.
On to `COC(=O)[C@]12CCC(C)(C)C[C@H]1C1=CC[C@@H]3[C@@]4(C)CC[C@H](O[C@@]5(C(=O)O)C[C@H](O)[C@@H](NC(C)=O)[C@H]([C@H](O)[C@H](O)CO)O5)C(C)(C)[C@@H]4CC[C@@]3(C)[C@]1(C)CC2`, for which the values for the inhibition in series [1], in series [2] and in series [3] were 64.9%, 70.7% and 89.9%, respectively. For the same compound, the Activity is 46.7% in series [4], “Non-Toxic” in series [5] and “Dose-dependent effect” in series [6].
As to `CC(=O)N[C@H]1[C@H]([C@H](O)[C@H](O)CO)O[C@](O[C@H]2CC[C@]3(C)[C@H]4C(=O)C=C5[C@@H]6C[C@@](C)(CO)CC[C@]6(C)CC[C@@]5(C)[C@]4(C)CC[C@H]3C2(C)C)(C(=O)O)C[C@@H]1O`, the inhibition in series [1] turned out to be 40.3%; in series [2], 43.8%; in series [3] it was 35.8%.
Turning to `COC(=O)[C@]12CCC(C)(C)C[C@H]1C1=CC[C@@H]3[C@@]4(C)CC[C@H](O[C@]5(C(=O)O)C[C@H](O)[C@@H](NC(C)=O)[C@H]([C@H](O)[C@H](O)CO)O5)C(C)(C)[C@@H]4CC[C@@]3(C)[C@]1(C)CC2`, the inhibition is 70.7% in series [1], 65.7% in series [2] and 74.9% in series [3]. For the same compound, the Activity is given as 39.4% in series [4] and “Non-Toxic” in series [5].
Consider `COC(=O)[C@@]1(C)CC[C@]2(C)CC[C@]3(C)C(=CC(=O)[C@@H]4[C@@]5(C)CC[C@H](O[C@]6(C(=O)O)C[C@H](O)[C@@H](NC(C)=O)[C@H]([C@H](O)[C@H](O)CO)O6)C(C)(C)[C@@H]5CC[C@]43C)[C@@H]2C1`, for which the inhibition in series [1] was found to be 39.9%; in series [2], 27.5%; in series [3], 52.2%.
The matching figures for `CC(=O)N[C@H]1[C@H]([C@H](O)[C@H](O)CO)O[C@](O[C@H]2CC[C@]3(C)[C@H]4CC=C5[C@@H]6CC(C)(C)CC[C@]6(C(=O)O)CC[C@@]5(C)[C@]4(C)CC[C@H]3C2(C)C)(C(=O)O)C[C@@H]1O`: 26.5%, 34.6% and 33.2%.
In the same order, the values of `CC(=O)N[C@H]1[C@H]([C@H](O)[C@H](O)CO)O[C@@](O[C@H]2CC[C@]3(C)[C@H]4C(=O)C=C5[C@@H]6C[C@@](C)(C(=O)O)CC[C@]6(C)CC[C@@]5(C)[C@]4(C)CC[C@H]3C2(C)C)(C(=O)O)C[C@@H]1O` are 27.4%, 16.4% and 50.1%.

In general, inhibition refers to the change of the read-out against control, counted positive when it falls.
